Our source for the IC50 values is patent US20260070945A1, “MACROCYCLIC IMMUNOMODULATORS” (Bristol-Myers Squibb Company, priority 2022, published 2026).

As usually defined, the IC50 is the concentration that inhibits the measured activity by half.

Where a SMILES comes first, the peptide text is derived from it. Bridges are numbered along the chain shown (N, C = ends). [ ]: non-standard residue; d: D form. The star is where a group is joined. ξ: configuration not given here. Phe(4-COOH) = N[C@@H](Cc1ccc(C(=O)O)cc1)C(=O)O; Bip = N[C@@H](Cc1ccc(-c2ccccc2)cc1)C(=O)O; Phe(3-Me) = Cc1cccc(C[C@H](N)C(=O)O)c1; hArg = N=C(N)NCCCC[C@H](N)C(=O)O; hhGln = NC(=O)CCCC[C@H](N)C(=O)O; Cha = N[C@@H](CC1CCCCC1)C(=O)O; Cit = NC(=O)NCCC[C@H](N)C(=O)O; Ile(3ξ) = CCC(C)[C@H](N)C(=O)O; Carboxymethyl = O=C(O)C*; NMeA = CN[C@@H](C)C(=O)O; Orn = NCCC[C@H](N)C(=O)O; Aun = NCCCCCCCCCCC(=O)O; Dab = NCC[C@H](N)C(=O)O; Nva = CCC[C@H](N)C(=O)O; Dap = NC[C@H](N)C(=O)O; AEEA = NCCOCCOCC(=O)O

The target in this assay is T1, PD-1/PD-L1 interaction (PE-labeled human PD-L1-Ig binding to Jurkat cell line over-expressing human PD-1) (Homo sapiens, UniProt Q15116).
T1 construct: expressed in transfected cells; host or cells: Jurkat
T1 sequence (Q15116 25-288): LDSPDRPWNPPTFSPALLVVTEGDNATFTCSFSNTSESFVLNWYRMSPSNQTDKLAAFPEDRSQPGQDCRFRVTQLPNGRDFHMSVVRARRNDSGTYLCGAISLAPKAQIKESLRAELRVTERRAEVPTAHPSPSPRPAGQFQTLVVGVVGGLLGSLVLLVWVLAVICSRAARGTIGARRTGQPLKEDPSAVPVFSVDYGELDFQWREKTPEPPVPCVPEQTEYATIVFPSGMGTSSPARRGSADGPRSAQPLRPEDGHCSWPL
The assay is described as follows: Jurkat-PD-1 Cell Binding High-Content Screening Assay (CBA). As to conditions: Jurkat-hPD-1 cells, PE-labeled PD-L1-Ig 20 nM final; read-out: Jurkat HPD1 PDL1 IC50. A digest of the protocol: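 In this imaging assay, cells in 10% FCS medium see compound for 2 h at 37 °C and then labeled ligand at 20 nM final for 1 h. Paraformaldehyde fixation, Hoechst 33342 staining and dPBS washes precede image capture.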
As to `CC(C)C[C@@H]1NC(=O)[C@H](Cc2c[nH]c3ccccc23)NC(=O)[C@H](CC(=O)O)NC(=O)[C@H](Cc2ccc(OCC(=O)O)cc2)NC(=O)[C@H](CCCCNC(=N)N)NC(=O)CSC[C@@H](C(=O)NCC(=O)NCCOCCOCC(=O)N[C@@H](CCN)C(=O)NCCCCCCCCCCC(=O)O)NC(=O)[C@H](CCCNC(N)=O)NC(=O)[C@H](C(C)C)NC(=O)[C@H](CC2CCCCC2)NC(=O)[C@H](CCN)NC(=O)[C@@H](CC(C)C)NC(=O)[C@H](C)N(C)C(=O)[C@H](C(C)C)NC(=O)[C@H](Cc2ccc(-c3ccccc3)cc2)NC1=O` [Example 2179] ({CH2CO}-[hArg]Y(Carboxymethyl)DWL[Bip]V[NMeA][dL][Dab][Cha]V[Cit]CG[AEEA][Dab][Aun]-OH; thioether N-14), the IC50 turned out to be 11.2 nM.
In the case of `CC(C)C[C@@H]1NC(=O)[C@H](Cc2c[nH]c3ccccc23)NC(=O)[C@H](CC(=O)O)NC(=O)[C@H](Cc2ccc(OCC(=O)O)cc2)NC(=O)[C@H](CCCCNC(=N)N)NC(=O)CSC[C@@H](C(=O)NCC(=O)NCCOCCOCC(=O)N[C@@H](CCCN)C(=O)NCCCCCCCCCCC(=O)O)NC(=O)[C@H](CCCNC(N)=O)NC(=O)[C@H](C(C)C)NC(=O)[C@H](CC2CCCCC2)NC(=O)[C@H](CCN)NC(=O)[C@@H](CC(C)C)NC(=O)[C@H](C)N(C)C(=O)[C@H](C(C)C)NC(=O)[C@H](Cc2ccc(-c3ccccc3)cc2)NC1=O` [Example 2180] ({CH2CO}-[hArg]Y(Carboxymethyl)DWL[Bip]V[NMeA][dL][Dab][Cha]V[Cit]CG[AEEA][Orn][Aun]-OH; thioether N-14), the IC50 is 16.3 nM.
To `CC(C)C[C@@H]1NC(=O)[C@H](Cc2c[nH]c3ccccc23)NC(=O)[C@H](CC(=O)O)NC(=O)[C@H](Cc2ccc(OCC(=O)O)cc2)NC(=O)[C@H](CCCCNC(=N)N)NC(=O)CSC[C@@H](C(=O)NCC(=O)NCCOCCOCC(=O)N[C@@H](CCCCN)C(=O)NCCCCCCCCCCC(=O)O)NC(=O)[C@H](CCCNC(N)=O)NC(=O)[C@H](C(C)C)NC(=O)[C@H](CC2CCCCC2)NC(=O)[C@H](CCN)NC(=O)[C@@H](CC(C)C)NC(=O)[C@H](C)N(C)C(=O)[C@H](C(C)C)NC(=O)[C@H](Cc2ccc(-c3ccccc3)cc2)NC1=O` [Example 2181] ({CH2CO}-[hArg]Y(Carboxymethyl)DWL[Bip]V[NMeA][dL][Dab][Cha]V[Cit]CG[AEEA]K[Aun]-OH; thioether N-14) belongs 21.1 nM; to `CC(C)C[C@@H]1NC(=O)[C@H](Cc2c[nH]c3ccccc23)NC(=O)[C@H](CC(=O)O)NC(=O)[C@H](Cc2ccc(OCC(=O)O)cc2)NC(=O)[C@H](CCCCNC(=N)N)NC(=O)CSC[C@@H](C(=O)NCC(=O)NCCOCCOCC(=O)N[C@@H](CCCNC(N)=O)C(=O)NCCCCCCCCCCC(=O)O)NC(=O)[C@H](CCCNC(N)=O)NC(=O)[C@H](C(C)C)NC(=O)[C@H](CC2CCCCC2)NC(=O)[C@H](CCN)NC(=O)[C@@H](CC(C)C)NC(=O)[C@H](C)N(C)C(=O)[C@H](C(C)C)NC(=O)[C@H](Cc2ccc(-c3ccccc3)cc2)NC1=O` [Example 2182] ({CH2CO}-[hArg]Y(Carboxymethyl)DWL[Bip]V[NMeA][dL][Dab][Cha]V[Cit]CG[AEEA][Cit][Aun]-OH; thioether N-14), 12.3 nM.
To `CC(C)C[C@@H]1NC(=O)[C@H](Cc2c[nH]c3ccccc23)NC(=O)[C@H](CC(=O)O)NC(=O)[C@H](Cc2ccc(OCC(=O)O)cc2)NC(=O)[C@H](CCCCNC(=N)N)NC(=O)CSC[C@@H](C(=O)NCCOCCOCC(=O)N[C@@H](CCCNC(N)=O)C(=O)NCCCCCCCCCCC(=O)O)NC(=O)[C@H](CCCNC(N)=O)NC(=O)[C@H](C(C)C)NC(=O)[C@H](CC2CCCCC2)NC(=O)[C@H](CCN)NC(=O)[C@@H](CC(C)C)NC(=O)[C@H](C)N(C)C(=O)[C@H](C(C)C)NC(=O)[C@H](Cc2ccc(-c3ccccc3)cc2)NC1=O` [Example 2183] ({CH2CO}-[hArg]Y(Carboxymethyl)DWL[Bip]V[NMeA][dL][Dab][Cha]V[Cit]C[AEEA][Cit][Aun]-OH; thioether N-14) belongs 19.2 nM; to `CCC(C)[C@@H]1NC(=O)[C@H](Cc2ccc(-c3ccccc3)cc2)NC(=O)[C@H](CC(C)C)NC(=O)[C@H](Cc2c[nH]c3ccccc23)NC(=O)[C@H](CC(=O)O)NC(=O)[C@H](Cc2ccc(OCC(=O)O)cc2)NC(=O)[C@H](CCCCNC(=N)N)NC(=O)CSC[C@@H](C(=O)NCCOCCOCC(=O)N[C@@H](CCN)C(=O)NCCCCCCCCCCC(=O)O)NC(=O)[C@H](CCCCN)NC(=O)[C@H](C(C)C)NC(=O)[C@H](CC2CCCCC2)NC(=O)[C@H](CCN)NC(=O)[C@@H](CC(C)C)NC(=O)[C@H](C)N(C)C1=O` (stereo partly drawn) [Example 2184] ({CH2CO}-[hArg]Y(Carboxymethyl)DWL[Bip][Ile(3ξ)][NMeA][dL][Dab][Cha]VKC[AEEA][Dab][Aun]-OH; thioether N-14), 30.2 nM.
As for `CCC(C)[C@@H]1NC(=O)[C@H](Cc2ccc(-c3ccccc3)cc2)NC(=O)[C@H](CC(C)C)NC(=O)[C@H](Cc2c[nH]c3ccccc23)NC(=O)[C@H](CC(=O)O)NC(=O)[C@H](Cc2ccc(OCC(=O)O)cc2)NC(=O)[C@H](CCCCNC(=N)N)NC(=O)CSC[C@@H](C(=O)NCCOCCOCC(=O)N[C@@H](CCN)C(=O)NCCCCCCCCCCC(=O)O)NC(=O)[C@H](CCCCN)NC(=O)[C@H](C(C)C)NC(=O)[C@H](CC2CCCCC2)NC(=O)[C@H](CCN)NC(=O)[C@@H](C)NC(=O)[C@H](C)N(C)C1=O` (stereo partly shown) [Example 2185] ({CH2CO}-[hArg]Y(Carboxymethyl)DWL[Bip][Ile(3ξ)][NMeA][dA][Dab][Cha]VKC[AEEA][Dab][Aun]-OH; thioether N-14), the IC50 turned out to be 40.2 nM.
As for `CC[C@H](C)[C@@H]1NC(=O)[C@H](Cc2ccc(-c3ccccc3)cc2)NC(=O)[C@H](CC(C)C)NC(=O)[C@H](Cc2c[nH]c3ccccc23)NC(=O)[C@H](CC(=O)O)NC(=O)[C@H](Cc2ccc(OCC(=O)O)cc2)NC(=O)[C@H](CCCCNC(=N)N)NC(=O)CSC[C@@H](C(=O)NCCOCCOCC(=O)N[C@@H](CCN)C(=O)NCCCCCCCCCCC(=O)O)NC(=O)[C@H](CCCCN)NC(=O)[C@H](C(C)C)NC(=O)[C@H](CC2CCCCC2)NC(=O)[C@H](CCN)NC(=O)[C@H]2CCCN2C(=O)[C@H](C)N(C)C1=O` [Example 2186] ({CH2CO}-[hArg]Y(Carboxymethyl)DWL[Bip]I[NMeA][dP][Dab][Cha]VKC[AEEA][Dab][Aun]-OH; thioether N-14), the IC50 amounted to 158 nM.
Consider `CCC[C@@H]1NC(=O)[C@@H](CC(C)C)NC(=O)[C@H](C)N(C)C(=O)[C@H](C(C)C)NC(=O)[C@H](Cc2ccc(-c3ccccc3)cc2)NC(=O)[C@H](CC(C)C)NC(=O)[C@H](Cc2c[nH]c3ccccc23)NC(=O)[C@H](CC(=O)O)NC(=O)[C@H](Cc2ccc(C(=O)O)cc2)NC(=O)[C@H](Cc2ccc(OCC(=O)O)cc2)NC(=O)CSC[C@@H](C(=O)NCCOCCOCC(=O)NCCCCCCCCCCC(=O)O)NC(=O)[C@H](CCCCC(N)=O)NC(=O)[C@H](C(C)C)NC(=O)[C@H](CC2CCCCC2)NC1=O` [Example 2187] ({CH2CO}-Y(Carboxymethyl)[Phe(4-COOH)]DWL[Bip]V[NMeA][dL][Nva][Cha]V[hhGln]C[AEEA][Aun]-OH; thioether N-14), for which the IC50 turned out to be 6.2 nM.
For `CC(C)C[C@@H]1NC(=O)[C@H](Cc2c[nH]c3ccccc23)NC(=O)[C@H](CC(=O)O)NC(=O)[C@H](Cc2ccc(C(=O)O)cc2)NC(=O)[C@H](Cc2ccc(OCC(=O)O)cc2)NC(=O)CSC[C@@H](C(=O)N[C@@H](CCN)C(=O)NCCCCCCCCCCC(=O)O)NC(=O)[C@H](CCCNC(N)=O)NC(=O)[C@H](C(C)C)NC(=O)[C@H](CC2CCCCC2)NC(=O)[C@H](CCN)NC(=O)[C@@H](CC(C)C)NC(=O)[C@H](C)N(C)C(=O)[C@H](C(C)C)NC(=O)[C@H](Cc2ccc(-c3ccccc3)cc2)NC1=O` [Example 2188] ({CH2CO}-Y(Carboxymethyl)[Phe(4-COOH)]DWL[Bip]V[NMeA][dL][Dab][Cha]V[Cit]C[Dab][Aun]-OH; thioether N-14), the IC50 came out at 12.1 nM.
Next, `Cc1cccc(C[C@@H]2NC(=O)[C@H](CC(=O)O)NC(=O)[C@H](Cc3ccc(C(=O)O)cc3)NC(=O)[C@H](Cc3ccc(OCC(=O)O)cc3)NC(=O)CSC[C@@H](C(=O)N[C@@H](CCCN)C(=O)NCCCCCCCCCCC(=O)O)NC(=O)[C@H](CO)NC(=O)[C@H](C(C)C)NC(=O)[C@H](CC3CCCCC3)NC(=O)[C@H](CN)NC(=O)[C@@H](CC(C)C)NC(=O)[C@H](C)N(C)C(=O)[C@H](C(C)C)NC(=O)[C@H](Cc3ccc(-c4ccccc4)cc3)NC(=O)[C@H](CC(C)C)NC2=O)c1` [Example 2189] ({CH2CO}-Y(Carboxymethyl)[Phe(4-COOH)]D[Phe(3-Me)]L[Bip]V[NMeA][dL][Dap][Cha]VSC[Orn][Aun]-OH; thioether N-14): 28.9 nM; `CC(C)C[C@H]1NC(=O)[C@H](C)N(C)C(=O)[C@H](C(C)C)NC(=O)[C@H](Cc2ccc(-c3ccccc3)cc2)NC(=O)[C@H](C(C)C)NC(=O)[C@H](Cc2c[nH]c3ccccc23)NC(=O)[C@H](CC(=O)O)NC(=O)[C@H](Cc2ccc(OCC(=O)O)cc2)NC(=O)[C@H](CCCCNC(=N)N)NC(=O)CSC[C@@H](C(=O)N[C@@H](CCN)C(=O)NCCCCCCCCCCC(=O)O)NC(=O)[C@H](CO)NC(=O)[C@H](C(C)C)NC(=O)[C@H](CC2CCCCC2)NC(=O)[C@H](CCN)NC1=O` [Example 2191] ({CH2CO}-[hArg]Y(Carboxymethyl)DWV[Bip]V[NMeA][dL][Dab][Cha]VSC[Dab][Aun]-OH; thioether N-14): 13.4 nM.
Next, `CC(C)C[C@@H]1NC(=O)[C@H](Cc2c[nH]c3ccccc23)NC(=O)[C@H](CC(=O)O)NC(=O)[C@H](Cc2ccc(C(=O)O)cc2)NC(=O)[C@H](Cc2ccc(OCC(=O)O)cc2)NC(=O)CSC[C@@H](C(=O)N[C@@H](CCN)C(=O)NCCOCCOCC(=O)NCCCCCCCCCCC(=O)O)NC(=O)[C@H](CCCCN)NC(=O)[C@H](C(C)C)NC(=O)[C@H](CC2CCCCC2)NC(=O)[C@H](CCN)NC(=O)[C@@H](CC(C)C)NC(=O)[C@H](C)N(C)C(=O)[C@H](C(C)C)NC(=O)[C@H](Cc2ccc(-c3ccccc3)cc2)NC1=O` [Example 2192] ({CH2CO}-Y(Carboxymethyl)[Phe(4-COOH)]DWL[Bip]V[NMeA][dL][Dab][Cha]VKC[Dab][AEEA][Aun]-OH; thioether N-14): 7.6 nM.
